Like-named read-outs stand apart in the source and are kept apart here. Where only a bound is given, the exact number is not on record here.

Data set [1] concerns dihydrotlavonol 4-reductase (DFR). The following applies: grape cell cultures, addition of compound; cited from earlier work.
The test system of data set [2] is cyp705a5 mutant phenotype. The following applies: 15 μM in the growth medium; cited from earlier work.
Data set [3] concerns Barley (Hordeumvulgare L.) seeds. The following applies: cited from earlier work.
Another data set relates to cress seedlings. The following applies: biphasic, dose dependent; cited from earlier work.
The test system of data set [4] is P. expansum. The following applies: in vitro, agarized apple juice medium; cited from earlier work.
In data set [5] the test system is vacuolar membrane (H+-ATPase and H+-pyrophosphatase), slow vacuolar (SV) channel. The following applies: cited from earlier work.
In another data set the test system is white potato tissue. The note with it: biphasic, dose dependent; cited from earlier work.
The subject of another data set is cut seed potatoes. The note with it: cited from earlier work.
For data set [6], the system named is P. expansum. Also noted: reduction of lesion diameters: concentration or dose not given beside the values. The note with it: cited from earlier work; for reduction of lesion diameters: apples Golden Delicious, 16° C. in the dark; for patulin accumulation in apples: in vivo, lesions analyzed by HPLC after 14 days.
Data set [7] has as its system polar transport of indol-3yl-acetic acid. The following applies: 4-6 h; stimulation of basipetal, inhibition of acropetal transport; cited from earlier work.
A further data set has as its system Fusarium. The note with it: about 0.60 to 0.70 mg per 100 g dry weight accumulated in the testa of ant18 mutants.
The mark [8] stands for this setting: low-grade seeds soaked in aqueous 10^-4 M.

With `O=C1c2c(O)cc(O)cc2OC(c2ccc(O)c(O)c2)C1O` (stereo not drawn) [Dihydroquercetin (taxifolin)], in data set [1], the “increase in dihydrotlavonol 4-reductase (DFR) activity” value is recorded as 10 fold. Further, the “phenotype restored, of the wild type gravity response” value in [2] is not below 100%. The “activity of ascorbate peroxidase (AsP)” value in data set [3] ((+DHQ)-plants) is recorded as “increased more significantly”. Moreover, in data set [3] (leaves, optimal soil conditions and flooding), the “ratio between TBARs content and AsP activity” value was “lower”. Also, in data set [3] (setting [8]), the “germination rate in comparison with the same seeds soaked in water” value was “twofold”. For the same compound, the mold on seeds result in [3] (setting [8]) is recorded as “no mold”. Further, the root growth result in data set [3] (seedlings from pretreated seeds vs non-pretreated) is “higher”. The shoot growth entry in [3] (seedlings from similarly germinated seeds, with vs without pretreatment) is listed as “did not differ”. For the same compound, in data set [3] (soil flooding, roots and leaves, (+DHQ) vs (-DHQ) seedlings), the TBARs content entry is “lower”. In addition, the “root growth of cress seedlings” value in the data set on cress seedlings is recorded as “increased”. In addition, the fungal growth entry with P. expansum [4] was “no inhibition”. In addition, the “reduction of patulin accumulation” value in the data set on P. expansum [4] was 48%. Further, the “active and passive transport systems of the vacuolar membrane” value in data set [5] is given as “affected”. Besides, in data set [5] (isolated vacuoles), the “effect on the membranes of isolated vacuoles” value is listed as “strong stabilizing effect”. For the same compound, in the data set on white potato tissue, the “oxygen consumption of white potato tissue” value is reported as “stimulated”. Also, the “fungal mold growth on treated seed pieces” value in the data set with cut seed potatoes (incubated in a controlled environment) is “adequately retarded”. Further, the “thickness of the suberized layer formed below the cut surface” value in the data set on cut seed potatoes (treated seed potato tissue) is given as “increases”. For the same compound, the entries for the “reduction of lesion diameters” value in the data set with P. expansum [6] (after 6 days of incubation), in the data set with P. expansum [6] (after 10 days of incubation) and in the data set on P. expansum [6] (after 14 days of incubation) were 97%, 71% and 27%, respectively. For the same compound, the “patulin accumulation in apples” value in the data set with P. expansum [6] was “no reduction”. The “polarity of the transport of indol-3yl-acetic acid” value (from here on “polarity”) in data set [7] is reported as “increased”. Moreover, in the data set on Fusarium, the “resistance of seeds to Fusarium infection” value is listed as “extraordinary resistance”.

As to `COc1cc(/C=C/C(=O)O)ccc1O` [ferulic acid], the “polarity” value in data set [7] was “increased”.

On to `O=c1c(O)c(-c2ccc(O)cc2O)oc2cc(O)cc(O)c12` [morin], for which, in data set [7], the “polarity” value is reported as “increased”.

As to `C[C@@H]1O[C@@H](O[C@H]2[C@H](Oc3cc(O)c4c(c3)O[C@H](c3ccc(O)cc3)CC4=O)O[C@H](CO)[C@@H](O)[C@@H]2O)[C@H](O)[C@H](O)[C@H]1O` [naringin], the “polarity” value in data set [7] was “increased”.

`O=C1/C(=C/c2ccc(O)c(O)c2)Oc2cc(O)ccc21` [sulfuretin]: the “polarity” value in data set [7] is “increased”.

Regarding `O=c1ccc2ccc(O)cc2o1` [umbelliferone, reference compound], in the data set on P. expansum [4], the fungal growth entry is reported as “no inhibition”. Also, in the data set on P. expansum [4], the “reduction of patulin accumulation” value is recorded as 53%. In addition, the “reduction of lesion diameters” value in the data set with P. expansum [6] (after 6 days of incubation) is on record as 100%; with P. expansum [6] (after 10 days of incubation) it was 68%; in the data set with P. expansum [6] (after 14 days of incubation) it was 38%. Besides, the “patulin accumulation in apples” value in the data set with P. expansum [6] is reported as “no reduction”.

These data come from US20140335210A1, “METHOD AND AGROCHEMICAL COMPOSITION FOR USING LARCH WOOD EXTRACTS IN AGRICULTURE” (FLAVITPURE, INC., priority 2013, published 2014).
